Where “and” joins values, the source holds several entries; their conditions need not be identical. Identical values can stand only once. Entries after “also recorded” stand apart in the source; their conditions may differ.
How the values were obtained:
[1] = test system: visceral leishmaniasis (leishmaniasis amastigotes in spleen aspirates); experiment: Randomised clinical trial in newly diagnosed visceral leishmaniasis: clinical and parasitologic cure (Example 2); type: in vivo, human; conditions: for Clinical cures, % / Clinical cures, No.: at termination, complete abatement of initial symptoms with marked reduction of spleen size; for Apparent cures, % / Apparent cures, No.: negative spleen aspirate smears at termination of treatment; for Failures, % / Failures, No.: partial cures and relapses; for Partial cures, % / Partial cures, No.: persistence of low parasite counts in terminal spleen aspirates; for Definite cures, % / Definite cures, No.: persisting clinical cure with negative spleen aspirates 6 months after termination; for Relapses, % / Relapses, No.: reappearance of leishmanial parasites after an apparent cure; for Mean treatment duration: treated until first negative spleen aspirate or for 20 consecutive days
Experimental: (§1) Patients newly diagnosed with visceral leighmaniasis, confirmed by the presence of leishmaniasis amastigotes in spleen aspirates, were allocated randomly to groups subjected to the following treatments:
(§2) 1) IV/IM sodium stibogluconate (SbV) 20 mg/kg body weight once per day;
(§3) 2) IM paromomycin sulphate (PM) 14-16 mg/kg body weight once per day;
(§4) 3) IV/IM sodium stibogluconate 20 mg/kg body weight once per day and paromomycin sulphate 14-16 mg/kg body weight once per day.
(§5) All treatments were administered until the first negative spleen aspirate was obtained, or for 20 consecutive days regardless of aspirate findings.
Exclusion criteria were: […]; known allergy to aminoglycoside compounds: pregnancy; haemoglobin assay below 40 g/l; abnormal prothrombin time; impaired liver or renal function; major concurrent infection; previous drug treatment for leishmaniasis; and spleen smear-parasite grading of less than 4+.
(§6) The following procedures were conducted for patient assessment at intake and at suitable intervals during and after treatment: clinical history writeup: physical examination: body weight: chest X-ray: ECG tracing: liver and kidney function tests: blood picture and blood smears (to rule out malaria): complete urinalysis: stool examination: prothrombin time: and spleen aspirate smear examination by the method of Chulay & Bryceson, Quantitations of amastigotes of leishmania donovani in smears of splenic aspirates from patients with visceral leishmaniasis, American Journal of Tropical Medicine and Hygiene, 32, 1983, 475-479.
Treatment of effectiveness was graded under the following headings:
Clinical cure: complete abatement of initial symptoms with marked reduction of spleen size;
Partial cure: persistence of low parasite counts in terminal spleen aspirates;
Apparent cure: negative spleen aspirate smears at termination of treatment;
Relapse: reappearance of leishmanial parasites after an apparent cure;
Definite cure: persisting clinical cure with negative spleen aspirates 6 months after termination of treatment;
Failures: partial cures and relapses.
(§7) Drug safety was assessed for each treatment regime in terms of incidence of drug-related signs and symptoms and of laboratory test results return abnormalities. The assembled data were processed statistically by the Fisher's exact test (chi-square) and Pearson's correlation coefficient.

visceral leishmaniasis [2] = experiment: Clinical, haematologic and parasite indices during treatment and follow-up (Example 2); type: in vivo, human; conditions: mean
Experimental: as §1, §2, §3, §4, §5, §6

[3] = Drug safety: adverse effects and complications (Example 2); type: in vivo, human
Experimental: as §1, §2, §3, §4, §5, §6, §7

visceral leishmaniasis [4] = conditions: parenteral, 20 mg/kg body weight over 30 days; cited from earlier work
Kala-azar = conditions: 20 mg SbV/kg daily for 40 days; cited from earlier work
[5] = Blood biochemistry during treatment and follow-up (Example 2); type: in vivo, human
Experimental: as §2, §3, §4, §5, §6
The assembled data were processed statistically by the Fisher's exact test (chi-square) and Pearson's correlation coefficient.

For NC[C@@H]1O[C@H](O[C@H]2[C@@H](O)[C@H](O[C@@H]3[C@@H](O)[C@H](N)C[C@H](N)[C@H]3O[C@H]3O[C@H](CO)[C@@H](O)[C@H](O)[C@H]3N)O[C@@H]2CO)[C@H](N)[C@@H](O)[C@@H]1O [PM, paromomycin sulphate], the “Clinical cures, %” value [1] was 100%, the “Clinical cures, No.” value [1] was 19 No and the “incidence of relapses (in words)” value ([1]; comparison of treatment groups) was “least incidence of relapses; also recorded: smallest share of relapses; also recorded: low rate of relapses”. The “parasitologic effectiveness (in words)” value ([1]; comparison of treatment groups) was “best results”, the “share of partial cures (in words)” value ([1]; comparison of treatment groups) was “highest share of partial cures” and the “Apparent cures, %” value [1] was 84.2%. For the same compound, the “Apparent cures, No.” value [1] was 16 No, the “Failures, %” value [1] was 21% and the “Failures, No.” value [1] was 4 No. For the same compound, the “Partial cures, %” value [1] was 15.8%, the “Partial cures, No.” value [1] was 3 No and the “Definite cures, %” value [1] was 79%. The “Definite cures, No.” value [1] was 15 No, the “Relapses, %” value [1] was 5.2% and the “Relapses, No.” value [1] was 1 No. For the same compound, the Mean treatment duration [1] was 19 days, the Eosinophil count (visceral leishmaniasis [2]; Day 0 (intake)) was 0 /cu mm and the Heart rate (visceral leishmaniasis [2]; Day 0 (intake)) was 105 min⁻¹. It also gave a Hemoglobin assay (visceral leishmaniasis [2]; Day 0 (intake)) of 7.1 g/dL, a Parasite grading (visceral leishmaniasis [2]; Day 0 (intake)) of 5 and a Spleen size (visceral leishmaniasis [2]; Day 0 (intake)) of 15.5 cm. For the same compound, the Temp (visceral leishmaniasis [2]; Day 0 (intake)) was 38.3 °C, the Weight (visceral leishmaniasis [2]; Day 0 (intake)) was 34.0 kg and the Eosinophil count (visceral leishmaniasis [2]; Day 20) was 2 /cu mm. The Heart rate (visceral leishmaniasis [2]; Day 20) was 84 min⁻¹, the Hemoglobin assay (visceral leishmaniasis [2]; Day 20) was 10.0 g/dL and the Parasite grading (visceral leishmaniasis [2]; Day 20) was 1. It also gave a Spleen size (visceral leishmaniasis [2]; Day 20) of 8.4 cm, a Temp (visceral leishmaniasis [2]; Day 20) of 36.1 °C and a Weight (visceral leishmaniasis [2]; Day 20) of 37.0 kg. For the same compound, the Eosinophil count (visceral leishmaniasis [2]; Day 75) was 1 /cu mm, the Heart rate (visceral leishmaniasis [2]; Day 75) was 82 min⁻¹ and the Hemoglobin assay (visceral leishmaniasis [2]; Day 75) was 12.3 g/dL. For the same compound, the Parasite grading (visceral leishmaniasis [2]; Day 75) was 1, the Spleen size (visceral leishmaniasis [2]; Day 75) was 4.3 cm and the Temp (visceral leishmaniasis [2]; Day 75) was 36.1 °C. For the same compound, the Weight (visceral leishmaniasis [2]; Day 75) was 39.1 kg, the “Adverse effects, %” value ([3]; in vivo) was 0% and the “Adverse effects, No.” value ([3]; in vivo) was 0 No. The “antibiotic treatment needed for pneumonia” value ([3]; in vivo) was “did not need additional antibiotic medication”, the “bouts of pneumonia, cases” value ([3]; in vivo) was 4 cases and the “side effects (in words)” value ([3]; in vivo) was “no side effects”.
For sodium stibogluconate [SbV], the “Clinical cures, %” value [1] was 100%, the “Clinical cures, No.” value [1] was 11 No and the “parasitologic effectiveness (in words)” value ([1]; comparison of treatment groups) was “by far the least effective of all”. The “Apparent cures, %” value [1] was 90.9%, the “Apparent cures, No.” value [1] was 10 No and the “Failures, %” value [1] was 45.5% and 45. %. The “Failures, No.” value [1] was 5 No, the “Partial cures, %” value [1] was 9.1% and the “Partial cures, No.” value [1] was 1 No. The “Definite cures, %” value [1] was 54.5%, the “Definite cures, No.” value [1] was 6 No and the “Relapses, %” value [1] was 36.4%. For the same compound, the “Relapses, No.” value [1] was 4 No, the Mean treatment duration [1] was 17 days and the Eosinophil count (visceral leishmaniasis [2]; Day 0 (intake)) was 0 /cu mm. For the same compound, the Heart rate (visceral leishmaniasis [2]; Day 0 (intake)) was 112 min⁻¹, the Hemoglobin assay (visceral leishmaniasis [2]; Day 0 (intake)) was 7.6 g/dL and the Parasite grading (visceral leishmaniasis [2]; Day 0 (intake)) was 5. The Spleen size (visceral leishmaniasis [2]; Day 0 (intake)) was 14.5 cm, the Temp (visceral leishmaniasis [2]; Day 0 (intake)) was 38.5 °C and the Weight (visceral leishmaniasis [2]; Day 0 (intake)) was 33.2 kg. For the same compound, the Eosinophil count (visceral leishmaniasis [2]; Day 20) was 1 /cu mm, the Heart rate (visceral leishmaniasis [2]; Day 20) was 92 min⁻¹ and the Hemoglobin assay (visceral leishmaniasis [2]; Day 20) was 8.9 g/dL. For the same compound, the Parasite grading (visceral leishmaniasis [2]; Day 20) was 1, the Spleen size (visceral leishmaniasis [2]; Day 20) was 7 cm and the Temp (visceral leishmaniasis [2]; Day 20) was 36.2 °C. The Weight (visceral leishmaniasis [2]; Day 20) was 27.3 kg, the Eosinophil count (visceral leishmaniasis [2]; Day 75) was 1 /cu mm and the Heart rate (visceral leishmaniasis [2]; Day 75) was 80 min⁻¹. It also gave a Hemoglobin assay (visceral leishmaniasis [2]; Day 75) of 11.6 g/dL, a Parasite grading (visceral leishmaniasis [2]; Day 75) of 1 and a Spleen size (visceral leishmaniasis [2]; Day 75) of 5 cm. For the same compound, the Temp (visceral leishmaniasis [2]; Day 75) was 36.9 °C, the Weight (visceral leishmaniasis [2]; Day 75) was 36.7 kg and the cure rate (visceral leishmaniasis [4]) was “about 80%”. For the same compound, the “Adverse effects, %” value ([3]; in vivo) was 27%, the “Adverse effects, No.” value ([3]; in vivo) was 3 No and the “bouts of pneumonia, cases” value ([3]; in vivo) was 5 cases. For the same compound, the “side effects (in words)” value ([3]; in vivo) was “distinctly more side effects”, the “antibiotic treatment needed for pneumonia” value ([3]; patients with pneumonia) was “required antibiotic treatment” and the failures (Kala-azar) was 8%. For the same compound, the “ALAT (Alanine aminotransferase)” value ([5]; Day 0) was 25.4 I.U./l, the “ALP (Alkaline phosphatase)” value ([5]; Day 0) was 87.6 I.U./l and the “ASAT (Aspartate aminotransferase)” value ([5]; Day 0) was 20.2 I.U./l. It also gave an Albumin ([5]; Day 0) of 31.3 g/L, a BUN assay ([5]; Day 0) of 8.2 mmol/L and a Bilirubin ([5]; Day 0) of 6.4 µmol/L. The Creatinine ([5]; Day 0) was 73.6 µmol/L, the “ALAT (Alanine aminotransferase)” value ([5]; Day 10) was 24.0 I.U./l and the “ALP (Alkaline phosphatase)” value ([5]; Day 10) was 79.1 I.U./l. The “ASAT (Aspartate aminotransferase)” value ([5]; Day 10) was 19.2 I.U./l, the Albumin ([5]; Day 10) was 30.3 g/L and the BUN assay ([5]; Day 10) was 8.1 mmol/L. For the same compound, the Bilirubin ([5]; Day 10) was 4.1 µmol/L, the Creatinine ([5]; Day 10) was 68.0 µmol/L and the “ALAT (Alanine aminotransferase)” value ([5]; Day 20) was 22.0 I.U./l. The “ALP (Alkaline phosphatase)” value ([5]; Day 20) was 71.0 I.U./l, the “ASAT (Aspartate aminotransferase)” value ([5]; Day 20) was 21.0 I.U./l and the Albumin ([5]; Day 20) was 29.5 g/L. The BUN assay ([5]; Day 20) was 4.0 mmol/L, the Bilirubin ([5]; Day 20) was 3.8 µmol/L and the Creatinine ([5]; Day 20) was 53.0 µmol/L. The “ALAT (Alanine aminotransferase)” value ([5]; Day 75) was 25.3 I.U./l, the “ALP (Alkaline phosphatase)” value ([5]; Day 75) was 83.7 I.U./l and the “ASAT (Aspartate aminotransferase)” value ([5]; Day 75) was 25.5 I.U./l. For the same compound, the Albumin ([5]; Day 75) was 36.6 g/L, the BUN assay ([5]; Day 75) was 3.8 mmol/L and the Bilirubin ([5]; Day 75) was 4.5 µmol/L. The Creatinine ([5]; Day 75) was 73.5 µmol/L, the “ALAT (Alanine aminotransferase)” value ([5]; Day 195) was 23.0 I.U./l and the “ALP (Alkaline phosphatase)” value ([5]; Day 195) was 84.0 I.U./l. The “ASAT (Aspartate aminotransferase)” value ([5]; Day 195) was 22.0 I.U./l, the Albumin ([5]; Day 195) was 40.0 g/L and the BUN assay ([5]; Day 195) was 4.0 mmol/L. For the same compound, the Bilirubin ([5]; Day 195) was 4.0 µmol/L and the Creatinine ([5]; Day 195) was 78.9 µmol/L.
In the case of vitamin K, the incidence of epistaxis ([3]; vitamin K 10 mg daily for 5 days, low initial haemoglobin and prolonged prothrombin time) is reported as “significantly reduced”.
